Test results: patent US7332503B2, “Aporphine esters and their use in therapy” (Axon Biochemicals B.V., priority 2000, dated 2008)
Counter-ions that a name gives are not always drawn.

Tests used:
[1] = literature, animal models; cited from earlier work
rat [2] = assay: Transdermal experiment in one single rat (shaved neck); assay type: in vivo
Protocol: The test animals used were male albino Wistar rats weighing between 200 and 370 g. Food and water were available to the rats all the time. They were set in a normal 12 hour day night rhythm. Before the operation the animals resided in a larger cage with a group of rats. During the experiments they were alone in a cage with the dimensions 25*25*35 cm. The blood sampling was performed in freely moving animals, which were all conscious. In this way potential behavioral changes from the treatment could be registered. The operation consisted of the application of a cannula in the vena jugularis. After an experiment the rats were given at least 24 hours to recover.
This amount of cream was applied with a spatula on the shaved neck of the rat, weighing about 350 g.
After one hour and 10 minutes, about five droplets of DMSO were smeared on to the rat neck.
In a comparative experiment 7 mg of Apomorphine hydrochloride solid was dissolved in DMSO (70 microliters).

rat [3] = assay: Dopaminergic activity in rats after s.c. injection in Viscoleo; assay type: in vivo; settings: two rats, ca 3.7 mg/kg (corr. to 2 mg/kg ApoxHCl), 3.7 mg/mL in Viscoleo
Protocol: The maximum volume of an oil solution/suspension to be injected intramuscularly or subcutaneously is 2-4 mL. This is feasible for the preparations of the aporphine derivatives of the present invention. The accumulated daily dose used in apomorphine s.c. therapy in Parkinson's disease is 4-10 times about 1-4 mg (4-40 mg/day). For the animal experiments performed in the pharmacological research, which led to the present invention, ca 2 mg Apomorphine×HCl (or equivalent molar amount of compounds according to Formula I above, as the base or as a suitable salt or ion-pair) was dissolved in 1 mL of an oil (sesame oil, Viscoleo or another approved oil) and the mixture was gently heated (max 50° C.) shaken in a test tube shaker and ultrasonicated for a short time (minutes) until the mixture became a homogeneous solution or suspension. If necessary, the test compound was first dissolved in 50-300 μL DMSO, water, t-BuOH, PEG, benzylbenzoate, or another suitable and approved solvent or mixtures thereof, before adding the oil (see above) to a total volume of 1 mL.
First 2 eq. were added and after a night at room temperature the solvent was evaporated and the residue was redissolved in CH2Cl2 and a sample was taken with a pipette and chromatographed on a pipette filled with Al2O3. Elution was performed with first CH2Cl2 and then with CH2Cl2:EtOH (9:1). […]

[4] = background statement; cited from earlier work
[5] = comparative: 2 mg in 20 microliters DMSO on shaved neck
[6] = about 5 mg in Fenuril cream plus DMSO

CC(=O)Oc1ccc2c(c1OC(C)=O)-c1cccc3c1C(C2)N(C)CC3 (centres unmarked) [10,11-Di-acetyl-apomorphine]
activity relative to parent compound apomorphine [1]: almost as potent as apomorphine itself

CN1CCc2cccc3c2C1Cc1ccc(OC(=O)C(C)(C)C)c(OC(=O)C(C)(C)C)c1-3 (centres unmarked) [dipivaloyl ester pro-drug]
activity relative to parent compound apomorphine [1]: much less active than the parent compound

CN1CCc2cccc3c2[C@H]1Cc1ccc(O)c(O)c1-3 [Apomorphine hydrochloride]
dopaminergic activity after end of stereotypy (rat [2]; [5]): No other signs of dopaminergic activity | duration of intense stereotypy (rat [2]; [5]): about two | time to stereotypy (rat [2]; [5]): about 30 minutes

Mono-Butyryl Apomorphine [Example 2]
behaviour the next day at 10:00 a.m. (rat [2]; [6]): still active showing signs of chewing | time at which chewing, sniffing and yawning were still observed (rat [2]; [6]): ~6 h | duration of stereotypy (rat [2]; about 5 mg in Fenuril cream, after DMSO): at least two | time to typical dopaminergic syndrome including locomotor activity (rat [2]; about 5 mg in Fenuril cream, time after DMSO): About 30 minutes | time to intense yawning, sniffing, penile licking and chewing (rat [2]; about 5 mg in Fenuril cream, time after about five droplets of DMSO smeared on neck): about 10 minutes | dopaminergic effects (rat [2]; about 5 mg in about 120 mg Fenuril hand cream on shaved neck, first hour, before DMSO): Dopaminergic effects were seen but they were weak

CCCCCCCCCCCCCCCC(=O)Oc1ccc2c(c1OC(=O)CCCCCCCCCCCCCCC)-c1cccc3c1C(C2)N(C)CC3 (centres unmarked) [di-C16-Apo]
effect (dopaminergic activity) (rat [3]): No effect whatsoever

N[C@@H](Cc1ccc(O)c(O)c1)C(=O)O [levodopa]
fraction of drug converted to DA in peripheral tissues [4]: about 95% | fraction of drug that enters the brain [4]: less than 1%
